The source of these data is ChEMBL document CHEMBL3792292, “Development of a potent and selective FLT3 kinase inhibitor by systematic expansion of a non-selective fragment-screening hit” (Bioorg Med Chem Lett, 2016).

In assay [1] the target is Ribosomal protein S6 kinase beta-1 (Homo sapiens) (UniProt P23443). Nature of the assay: Inhibition of human N-terminal GST-tagged p70S6K catalytic domain (1 to 421 residues) expressed in baculovirus expression system coexpressing His-tagged PDK1 (1 to 556 residues) using fluorescence labelled S6K2 peptide substrate at 50 times IC50 by electrophoretic mobility shift assay relative to control.
Chain of Ribosomal protein S6 kinase beta-1 (Homo sapiens) (P23443 whole entry, looked up, the tested form may be a part): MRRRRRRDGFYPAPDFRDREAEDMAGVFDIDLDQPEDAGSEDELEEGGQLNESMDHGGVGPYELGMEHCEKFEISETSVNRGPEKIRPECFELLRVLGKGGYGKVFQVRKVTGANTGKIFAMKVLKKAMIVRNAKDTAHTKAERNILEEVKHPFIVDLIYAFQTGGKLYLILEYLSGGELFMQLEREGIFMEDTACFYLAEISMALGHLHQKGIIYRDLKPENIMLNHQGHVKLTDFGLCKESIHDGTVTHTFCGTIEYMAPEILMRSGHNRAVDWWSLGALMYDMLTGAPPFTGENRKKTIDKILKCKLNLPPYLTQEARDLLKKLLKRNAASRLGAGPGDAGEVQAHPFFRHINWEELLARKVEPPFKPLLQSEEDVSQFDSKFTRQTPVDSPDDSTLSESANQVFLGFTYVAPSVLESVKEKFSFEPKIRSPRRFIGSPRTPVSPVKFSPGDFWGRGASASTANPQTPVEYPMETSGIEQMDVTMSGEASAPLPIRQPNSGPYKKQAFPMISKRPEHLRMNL

Assay [2] has as its target Platelet-derived growth factor receptor alpha (Homo sapiens) (UniProt P16234). Nature of the assay: Inhibition of human N-terminal GST-tagged PDGFRalpha cytoplasmic domain (550 to 1089 residues) expressed in baculovirus expression system using fluorescence labelled CSKtide as substrate at 50 times IC50 by electrophoretic mobility shift assay relative to control.
In assay [3] the target is Mitogen-activated protein kinase 9 (Homo sapiens) (UniProt P45984). Nature of the assay: Inhibition of human N-terminal GST-tagged JNK2 catalytic domain (1 to 364 residues) expressed in Escherichia coli using fluorescence labelled modified Erktide as substrate at 50 times IC50 by electrophoretic mobility shift assay relative to control.
Chain of Mitogen-activated protein kinase 9 (Homo sapiens) (P45984 whole entry, looked up, the tested form may be a part): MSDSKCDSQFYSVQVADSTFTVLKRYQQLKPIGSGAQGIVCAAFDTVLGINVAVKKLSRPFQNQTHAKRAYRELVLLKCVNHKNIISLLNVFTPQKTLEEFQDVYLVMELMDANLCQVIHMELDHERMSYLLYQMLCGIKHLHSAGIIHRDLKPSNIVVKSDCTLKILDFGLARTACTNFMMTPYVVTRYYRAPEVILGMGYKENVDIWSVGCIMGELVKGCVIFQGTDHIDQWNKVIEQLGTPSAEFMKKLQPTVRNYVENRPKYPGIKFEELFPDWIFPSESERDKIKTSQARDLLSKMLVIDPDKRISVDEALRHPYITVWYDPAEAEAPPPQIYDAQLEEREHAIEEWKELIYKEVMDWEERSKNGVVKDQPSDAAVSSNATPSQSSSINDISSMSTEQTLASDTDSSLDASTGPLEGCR
Assay [4] has as its target Epidermal growth factor receptor (Homo sapiens) (UniProt P00533). Description: Inhibition of human N-terminal GST-tagged EGFR cytoplasmic domain (669 to 1210 residues) expressed in baculovirus expression system using fluorescence labelled srctide as substrate at 50 times IC50 by electrophoretic mobility shift assay relative to control.
In assay [5] the target is Tyrosine-protein kinase Lck (Homo sapiens) (UniProt P06239). Nature of the assay: Inhibition of full length human N-terminal GST-tagged LCK (1 to 500 residues) expressed in baculovirus expression system using fluorescence labelled srctide as substrate at 50 times IC50 by electrophoretic mobility shift assay relative to control.
Chain of Tyrosine-protein kinase Lck (Homo sapiens) (P06239 2-509 limits assumed): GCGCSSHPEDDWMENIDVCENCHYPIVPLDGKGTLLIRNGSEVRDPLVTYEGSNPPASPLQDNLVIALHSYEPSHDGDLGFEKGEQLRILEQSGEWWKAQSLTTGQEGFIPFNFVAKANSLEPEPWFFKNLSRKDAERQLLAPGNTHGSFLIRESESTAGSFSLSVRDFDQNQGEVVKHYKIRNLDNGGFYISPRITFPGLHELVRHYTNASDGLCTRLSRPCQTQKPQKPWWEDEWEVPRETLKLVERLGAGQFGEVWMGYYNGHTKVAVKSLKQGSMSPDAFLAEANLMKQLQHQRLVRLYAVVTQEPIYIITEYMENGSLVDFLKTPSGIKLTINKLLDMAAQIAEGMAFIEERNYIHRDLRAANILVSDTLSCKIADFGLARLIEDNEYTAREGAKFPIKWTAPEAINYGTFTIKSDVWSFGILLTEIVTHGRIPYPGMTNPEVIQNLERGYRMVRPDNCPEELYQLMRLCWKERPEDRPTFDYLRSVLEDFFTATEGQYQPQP
Assay [6] deals with T1, Receptor-type tyrosine-protein kinase FLT3 (Homo sapiens, UniProt P36888).
T1 sequence (P36888 whole entry): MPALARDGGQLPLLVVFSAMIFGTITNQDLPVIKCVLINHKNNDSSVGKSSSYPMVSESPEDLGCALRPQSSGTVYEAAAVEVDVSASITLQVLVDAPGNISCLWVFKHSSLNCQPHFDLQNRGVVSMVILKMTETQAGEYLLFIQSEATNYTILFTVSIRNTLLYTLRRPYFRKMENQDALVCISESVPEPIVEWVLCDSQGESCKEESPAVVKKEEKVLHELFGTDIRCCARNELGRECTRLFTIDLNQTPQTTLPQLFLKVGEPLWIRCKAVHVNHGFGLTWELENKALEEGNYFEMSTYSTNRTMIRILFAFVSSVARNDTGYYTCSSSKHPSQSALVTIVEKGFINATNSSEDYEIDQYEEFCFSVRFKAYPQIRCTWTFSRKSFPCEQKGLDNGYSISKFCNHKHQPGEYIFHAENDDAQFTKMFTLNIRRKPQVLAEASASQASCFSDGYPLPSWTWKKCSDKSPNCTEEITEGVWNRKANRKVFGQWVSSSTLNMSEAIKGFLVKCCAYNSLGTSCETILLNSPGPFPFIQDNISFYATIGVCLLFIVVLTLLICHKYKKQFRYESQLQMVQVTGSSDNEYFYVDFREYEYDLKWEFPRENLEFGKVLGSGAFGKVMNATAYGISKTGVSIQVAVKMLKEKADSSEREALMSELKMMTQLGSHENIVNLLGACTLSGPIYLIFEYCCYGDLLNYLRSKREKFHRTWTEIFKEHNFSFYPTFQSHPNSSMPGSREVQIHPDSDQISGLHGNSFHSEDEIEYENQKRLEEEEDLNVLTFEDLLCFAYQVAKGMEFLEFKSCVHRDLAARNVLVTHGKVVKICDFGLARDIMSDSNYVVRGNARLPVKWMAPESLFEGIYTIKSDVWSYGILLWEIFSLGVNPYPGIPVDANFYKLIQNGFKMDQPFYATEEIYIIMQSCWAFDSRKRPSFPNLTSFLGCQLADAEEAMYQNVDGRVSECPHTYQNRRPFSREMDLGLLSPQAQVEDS
Nature of the assay: Inhibition of human N-terminal GST-tagged FLT3 cytoplasmic domain (564 to 993 residues) expressed in baculovirus expression system using fluorescence labelled srctide as substrate by mobility shift assay in presence of ATP.

In assay [7] the target is T2, Serine/threonine-protein kinase Chk1 (Homo sapiens) (UniProt O14757).
T2 sequence (whole entry): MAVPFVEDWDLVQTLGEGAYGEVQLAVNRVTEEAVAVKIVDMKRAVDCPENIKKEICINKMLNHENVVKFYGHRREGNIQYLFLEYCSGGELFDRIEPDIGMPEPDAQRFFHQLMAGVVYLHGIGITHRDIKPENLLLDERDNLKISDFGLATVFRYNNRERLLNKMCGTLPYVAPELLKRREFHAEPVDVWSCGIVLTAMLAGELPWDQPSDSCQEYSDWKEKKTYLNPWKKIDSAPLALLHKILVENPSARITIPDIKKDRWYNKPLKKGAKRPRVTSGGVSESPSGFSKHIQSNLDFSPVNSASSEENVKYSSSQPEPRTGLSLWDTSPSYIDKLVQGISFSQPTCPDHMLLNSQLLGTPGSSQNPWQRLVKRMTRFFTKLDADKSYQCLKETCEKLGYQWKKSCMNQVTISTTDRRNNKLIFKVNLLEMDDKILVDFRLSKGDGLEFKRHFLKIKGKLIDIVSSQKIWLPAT
Nature of the assay: Inhibition of full length human N-terminal GST-tagged CHK1 (1 to 476 residues) expressed in baculovirus expression system using fluorescence labelled CHKtide as substrate at 50 times IC50 by electrophoretic mobility shift assay relative to control.

For assay [8], the target named is T1, Receptor-type tyrosine-protein kinase FLT3. Description: Inhibition of human N-terminal GST-tagged FLT3 cytoplasmic domain (564 to 993 residues) expressed in baculovirus expression system using 5-FAM-peptide 2 as substrate after 2 hrs by electrophoretic mobility shift assay in presence of ATP.
For assay [9], the target named is Angiopoietin-1 receptor (Homo sapiens) (UniProt Q02763). Description: Inhibition of human N-terminal GST-tagged TIE2 receptor cytoplasmic domain (771 to 1124 residues) expressed in baculovirus expression system using fluorescence labelled Blk/Lyntide as substrate at 50 times IC50 by electrophoretic mobility shift assay relative to control.
Chain of Angiopoietin-1 receptor (Homo sapiens) (Q02763 whole entry, the tested form may be a part): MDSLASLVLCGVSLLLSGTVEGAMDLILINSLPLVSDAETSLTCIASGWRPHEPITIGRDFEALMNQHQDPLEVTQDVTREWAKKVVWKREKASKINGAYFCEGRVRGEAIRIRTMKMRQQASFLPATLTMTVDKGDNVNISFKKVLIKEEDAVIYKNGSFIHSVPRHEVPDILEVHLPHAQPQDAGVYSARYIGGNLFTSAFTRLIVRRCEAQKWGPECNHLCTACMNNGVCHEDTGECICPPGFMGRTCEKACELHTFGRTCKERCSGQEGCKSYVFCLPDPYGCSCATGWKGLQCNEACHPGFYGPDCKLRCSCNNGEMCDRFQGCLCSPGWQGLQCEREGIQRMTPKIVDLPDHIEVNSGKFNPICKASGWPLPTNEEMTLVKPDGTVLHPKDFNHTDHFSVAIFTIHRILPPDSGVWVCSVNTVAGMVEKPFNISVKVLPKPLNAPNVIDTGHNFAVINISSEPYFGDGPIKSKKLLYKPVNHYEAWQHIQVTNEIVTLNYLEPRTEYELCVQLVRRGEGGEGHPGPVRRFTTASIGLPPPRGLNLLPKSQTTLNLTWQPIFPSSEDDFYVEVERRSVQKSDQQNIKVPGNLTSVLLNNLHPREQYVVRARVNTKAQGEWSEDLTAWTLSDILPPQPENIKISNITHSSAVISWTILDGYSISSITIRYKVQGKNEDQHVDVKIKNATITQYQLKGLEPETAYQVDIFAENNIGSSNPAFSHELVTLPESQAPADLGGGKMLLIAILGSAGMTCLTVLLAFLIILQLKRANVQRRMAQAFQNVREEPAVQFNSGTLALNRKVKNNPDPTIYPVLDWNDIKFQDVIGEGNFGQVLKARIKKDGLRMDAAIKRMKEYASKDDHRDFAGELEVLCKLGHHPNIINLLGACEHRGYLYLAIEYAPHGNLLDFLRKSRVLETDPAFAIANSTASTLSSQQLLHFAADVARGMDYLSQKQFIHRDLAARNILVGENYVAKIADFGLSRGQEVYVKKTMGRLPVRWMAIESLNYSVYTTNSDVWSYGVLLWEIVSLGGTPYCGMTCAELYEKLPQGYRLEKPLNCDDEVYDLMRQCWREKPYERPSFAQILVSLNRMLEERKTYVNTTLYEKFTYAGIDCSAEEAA

SMILES strings stand for the structures.

Chain of Platelet-derived growth factor receptor alpha (Homo sapiens) (P16234 whole entry, the tested form may be a part): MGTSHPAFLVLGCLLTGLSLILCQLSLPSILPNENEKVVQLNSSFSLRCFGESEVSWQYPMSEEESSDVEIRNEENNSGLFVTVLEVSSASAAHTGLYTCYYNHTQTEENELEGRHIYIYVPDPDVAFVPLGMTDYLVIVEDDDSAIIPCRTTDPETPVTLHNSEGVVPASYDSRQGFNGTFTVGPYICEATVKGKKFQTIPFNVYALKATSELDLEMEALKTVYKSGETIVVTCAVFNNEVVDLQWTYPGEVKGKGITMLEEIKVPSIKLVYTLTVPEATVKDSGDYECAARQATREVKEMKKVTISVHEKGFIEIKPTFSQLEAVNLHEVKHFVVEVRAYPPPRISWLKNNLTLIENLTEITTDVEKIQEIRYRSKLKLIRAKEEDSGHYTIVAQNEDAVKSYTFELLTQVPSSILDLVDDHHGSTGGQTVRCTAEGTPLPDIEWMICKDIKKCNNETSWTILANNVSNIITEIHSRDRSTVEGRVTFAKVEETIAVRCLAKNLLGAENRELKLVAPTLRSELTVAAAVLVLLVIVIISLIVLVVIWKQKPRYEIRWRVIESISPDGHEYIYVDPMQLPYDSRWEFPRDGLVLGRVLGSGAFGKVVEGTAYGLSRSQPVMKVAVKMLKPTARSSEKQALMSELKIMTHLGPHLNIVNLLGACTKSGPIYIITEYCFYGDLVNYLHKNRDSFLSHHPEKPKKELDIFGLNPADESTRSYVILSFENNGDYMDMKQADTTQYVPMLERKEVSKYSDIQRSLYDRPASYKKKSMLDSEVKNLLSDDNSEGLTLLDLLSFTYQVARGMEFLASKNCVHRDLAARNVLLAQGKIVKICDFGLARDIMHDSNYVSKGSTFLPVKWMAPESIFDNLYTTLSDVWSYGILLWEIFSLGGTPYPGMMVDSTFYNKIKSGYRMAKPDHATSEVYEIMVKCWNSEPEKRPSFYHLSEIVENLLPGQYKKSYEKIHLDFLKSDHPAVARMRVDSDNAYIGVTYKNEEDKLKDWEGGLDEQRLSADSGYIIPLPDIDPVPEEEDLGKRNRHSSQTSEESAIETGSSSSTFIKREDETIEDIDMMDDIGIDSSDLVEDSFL
Chain of Epidermal growth factor receptor (Homo sapiens) (P00533 whole entry, the tested form may be a part): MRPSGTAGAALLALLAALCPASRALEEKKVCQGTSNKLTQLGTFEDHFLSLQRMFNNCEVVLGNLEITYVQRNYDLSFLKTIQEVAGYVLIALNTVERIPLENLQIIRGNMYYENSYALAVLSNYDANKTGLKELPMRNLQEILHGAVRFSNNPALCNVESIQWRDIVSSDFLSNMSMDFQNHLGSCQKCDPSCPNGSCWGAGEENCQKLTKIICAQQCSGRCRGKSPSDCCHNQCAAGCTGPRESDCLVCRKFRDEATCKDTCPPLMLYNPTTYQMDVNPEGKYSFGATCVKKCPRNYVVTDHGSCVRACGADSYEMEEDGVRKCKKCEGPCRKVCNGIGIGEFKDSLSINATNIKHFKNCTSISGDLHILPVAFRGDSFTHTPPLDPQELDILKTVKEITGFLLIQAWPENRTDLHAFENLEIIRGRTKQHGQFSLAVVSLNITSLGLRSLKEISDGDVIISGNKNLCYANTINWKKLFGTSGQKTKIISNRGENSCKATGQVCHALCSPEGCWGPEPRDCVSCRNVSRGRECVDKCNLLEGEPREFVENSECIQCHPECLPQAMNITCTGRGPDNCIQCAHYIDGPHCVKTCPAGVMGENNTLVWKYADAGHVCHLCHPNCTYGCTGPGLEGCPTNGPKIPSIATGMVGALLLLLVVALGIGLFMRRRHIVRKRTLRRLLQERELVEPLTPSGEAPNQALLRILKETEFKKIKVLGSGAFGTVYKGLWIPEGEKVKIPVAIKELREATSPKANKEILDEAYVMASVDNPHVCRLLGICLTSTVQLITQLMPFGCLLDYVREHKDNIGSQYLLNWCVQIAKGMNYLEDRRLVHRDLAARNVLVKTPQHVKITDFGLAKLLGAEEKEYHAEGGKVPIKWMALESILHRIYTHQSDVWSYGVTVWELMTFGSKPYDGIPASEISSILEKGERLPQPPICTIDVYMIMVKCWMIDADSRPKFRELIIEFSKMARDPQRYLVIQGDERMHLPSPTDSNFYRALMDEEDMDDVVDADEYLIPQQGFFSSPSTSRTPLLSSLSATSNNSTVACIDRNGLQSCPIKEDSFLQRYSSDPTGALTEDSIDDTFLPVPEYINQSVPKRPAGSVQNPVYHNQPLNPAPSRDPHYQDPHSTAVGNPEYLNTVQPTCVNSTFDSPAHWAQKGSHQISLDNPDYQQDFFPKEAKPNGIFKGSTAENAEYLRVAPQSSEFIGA

`O=C(Nc1ccccc1)c1n[nH]c2ccccc12`: the inhibition stood at 47.3% in assay [1]; 26.3% in [2]; 24.5% in assay [3]; 9.1% in assay [4]; 5.6% in [5]; 10.9% in assay [7]. Besides, the inhibition in assay [9] was 3%. Further, the IC50 in [6] was found to be 0.35 µM; in [8], 0.417 µM.
Take `O=C(Nc1ccc(C(=O)N2CCN(c3ccccc3)CC2)cc1)c1n[nH]c2ccccc12`: the inhibition in assay [1] is 43%; in [2], 47.2%; in assay [3], 9.3%; in [4], 0.1%; in [5], 1.8%; in assay [7], 8%. Moreover, the inhibition in assay [9] was -2%. Besides, the figures for the IC50 in [6] and in [8] were 0.023 µM and 0.034 µM, respectively.
Turning to `O=C(Nc1ccc(CN2CCN(c3ccccc3)CC2)cc1)c1n[nH]c2ccccc12`, the inhibition in [1] is 17.8%; in [2], 9.8%; in assay [3] it was -1.1%; in [4], 1.7%; in assay [5] it was 1.8%; in [7], 1%. In [9], the inhibition was -2.5%. The figures for the half-maximal inhibitory concentration (IC50) in assay [6] and in assay [8] were 0.009 µM and 0.01 µM, respectively.
